Data published in ChEMBL document CHEMBL4840324, “Bioassay-Guided Isolation of an Abetiane-Type Diterpenoid from Prunella vulgaris That Protects against Concanavalin A-Induced Autoimmune Hepatitis” (J Nat Prod, 2021).
Activity calls are given as the source filed them. No cut-off for these calls is given here.

Legend:
Mus musculus [1] = test: Hepatoprotective activity against ConA-induced hepatitis in C57BL/6J mouse assessed as suppression of CD3+ T cells infiltration expression at 10 mg/kg, ip administered for 2 days by TUNEL staining based assay; format: functional, organism-based; details: time 2.0 day
[2] = Immunosuppressive activity in human PBMCs assessed as inhibition of anti-CD3/anti-CD28 induced T-cell proliferation at 0.625 uM for 72 hrs by CellTrace Violet staining based flow cytometric analysis (reference value: 63.3 %); format: functional, PBMC; design: scale not given: the % may be the effect or the level left
Splenocyte [3] = test: Immunosuppressive activity in C57BL/6J mouse splenocytes assessed as inhibition of ConA-induced splenocytes proliferation at 0.3125 uM measured after 72 hrs by CellTrace Violet staining based flow cytometric analysis (reference value: 63.9 %); format: functional; design: scale not given: the % may be the effect or the level left
Splenocyte [4] = test: Immunosuppressive activity against anti-CD3/anti-CD28 stimulated C57BL/6J mouse splenocytes assessed as reduction of IL-6 secretion at 0.625 to 2.5 uM; format: functional, cell-based; details: dose 0.625-2.5 µM
Splenocyte [5] = test: Immunosuppressive activity against anti-CD3/anti-CD28 stimulated C57BL/6J mouse splenocytes assessed as reduction of IFN-gamma secretion at 0.625 to 2.5 uM; format: functional, cell-based; details: dose 0.625-2.5 µM
Mus musculus [6] = test: Hepatoprotective activity against ConA-induced hepatitis in C57BL/6J mouse assessed as effect on cleaved caspase 3 expression at 10 mg/kg, ip administered for 2 days by TUNEL staining based assay; format: functional, organism-based; details: time 2.0 day
Splenocyte [7] = test: Immunosuppressive activity in C57BL/6J mouse splenocytes assessed as inhibition of anti-CD3/anti-CD28 induced T-cell proliferation at 2.5 uM for 72 hrs by CellTrace Violet staining based flow cytometric analysis (reference value: 78.4 %); format: functional; design: scale not given: the % may be the effect or the level left
[8] = Hepatotoxicity in C57BL/6J mouse at 10 mg/kg, ip administered for 3 days by hematoxylin and eosin staining based immunohistochemical analysis; format: toxicity, organism-based; details: in vivo, 72 h, time 3 day
Splenocyte [9] = test: Immunosuppressive activity in C57BL/6J mouse splenocytes assessed as inhibition of anti-CD3/anti-CD28 induced T-cell proliferation at 0.625 uM for 72 hrs by CellTrace Violet staining based flow cytometric analysis (reference value: 78.4 %); format: functional; design: scale not given: the % may be the effect or the level left
Splenocyte [10] = test: Immunosuppressive activity against anti-CD3/anti-CD28 stimulated C57BL/6J mouse splenocytes assessed as reduction of IL-17 secretion at 0.625 to 2.5 uM; format: functional, cell-based; details: dose 0.625-2.5 µM
Splenocyte [11] = test: Immunosuppressive activity against anti-CD3/anti-CD28 stimulated C57BL/6J mouse splenocytes assessed as reduction of TNFalpha secretion at 0.625 to 2.5 uM; format: functional, cell-based; details: dose 0.625-2.5 µM
Splenocyte [12] = test: Immunosuppressive activity against anti-CD3/anti-CD28 stimulated C57BL/6J mouse splenocytes assessed as reduction of IL-10 secretion at 0.625 to 2.5 uM; format: functional, cell-based; details: dose 0.625-2.5 µM
Splenocyte [13] = test: Immunosuppressive activity in C57BL/6J mouse splenocytes assessed as inhibition of ConA-induced splenocytes proliferation at 0.156 uM measured after 72 hrs by CellTrace Violet staining based flow cytometric analysis (reference value: 63.9 %); format: functional; design: scale not given: the % may be the effect or the level left
PBMC [14] = test: Immunosuppressive activity against anti-CD3/anti-CD28 stimulated human PBMCs assessed as reduction of IFN-gamma secretion at 0.625 to 2.5 uM; format: functional, tissue-based; details: dose 0.625-2.5 µM
Splenocyte [15] = test: Immunosuppressive activity against anti-CD3/anti-CD28 stimulated C57BL/6J mouse splenocytes assessed as reduction of IL-4 secretion at 0.625 to 2.5 uM; format: functional, cell-based; details: dose 0.625-2.5 µM
[16] = Immunosuppressive activity in human PBMCs assessed as inhibition of anti-CD3/anti-CD28 induced T-cell proliferation at 1.25 uM for 72 hrs by CellTrace Violet staining based flow cytometric analysis (reference value: 63.3 %); format: functional, PBMC; design: scale not given: the % may be the effect or the level left
Mus musculus [17] = test: Hepatoprotective activity against ConA-induced hepatitis in C57BL/6J mouse assessed as effect on FAS expression at 10 mg/kg, ip administered for 2 days by TUNEL staining based assay; format: functional, organism-based; details: time 2.0 day
Splenocyte [18] = test: Inhibition of ConA-stimulated IFNgamma production in C57BL/6J mouse splenocytes at 0.156 to 1.25 uM; format: functional, cell-based; details: dose 0.156-1.25 µM
Mus musculus [19] = test: Hepatoprotective activity against ConA-induced hepatitis in C57BL/6J mouse assessed as effect on BCL2 expression at 10 mg/kg, ip administered for 2 days by TUNEL staining based assay; format: functional, organism-based; details: time 2.0 day
Splenocyte [20] = test: Inhibition of ConA-stimulated IL-2 production in C57BL/6J mouse splenocytes at 0.156 to 1.25 uM; format: functional, cell-based; details: dose 0.156-1.25 µM
Mus musculus [21] = test: Hepatoprotective activity against ConA-induced hepatitis in C57BL/6J mouse assessed as suppression of ALT level at 10 mg/kg, ip administered for 3 days by automatic analyzer; format: functional, organism-based; details: time 3.0 day
Mus musculus [22] = test: Hepatoprotective activity against ConA-induced hepatitis in C57BL/6J mouse assessed as suppression of LDH level at 10 mg/kg, ip administered for 3 days by automatic analyzer; format: functional, organism-based; details: time 3.0 day
Splenocyte [23] = test: Inhibition of ConA-stimulated IL-6 production in C57BL/6J mouse splenocytes at 0.156 to 1.25 uM; format: functional, cell-based; details: dose 0.156-1.25 µM
PBMC [24] = test: Immunosuppressive activity against anti-CD3/anti-CD28 stimulated human PBMCs assessed as reduction of TNFalpha secretion at 0.625 to 2.5 uM; format: functional, tissue-based; details: dose 0.625-2.5 µM
Splenocyte [25] = test: Immunosuppressive activity in C57BL/6J mouse splenocytes assessed as inhibition of anti-CD3/anti-CD28 induced T-cell proliferation at 1.25 uM for 72 hrs by CellTrace Violet staining based flow cytometric analysis (reference value: 78.4 %); format: functional; design: scale not given: the % may be the effect or the level left
Splenocyte [26] = test: Immunosuppressive activity in C57BL/6J mouse splenocytes assessed as inhibition of anti-CD3/anti-CD28 induced T-cell proliferation at 0.3125 uM for 72 hrs by CellTrace Violet staining based flow cytometric analysis (reference value: 78.4 %); format: functional; design: scale not given: the % may be the effect or the level left
[27] = Immunosuppressive activity in human PBMCs assessed as inhibition of anti-CD3/anti-CD28 induced T-cell proliferation at 0.3125 uM for 72 hrs by CellTrace Violet staining based flow cytometric analysis (reference value: 63.3 %); format: functional, PBMC; design: scale not given: the % may be the effect or the level left
Splenocyte [28] = test: Inhibition of ConA-stimulated TNFalpha production in C57BL/6J mouse splenocytes at 0.156 to 1.25 uM; format: functional, cell-based; details: dose 0.156-1.25 µM
Splenocyte [29] = test: Immunosuppressive activity in C57BL/6J mouse splenocytes assessed as inhibition of ConA-induced splenocytes proliferation at 1.25 uM measured after 72 hrs by CellTrace Violet staining based flow cytometric analysis (reference value: 63.9 %); format: functional; design: scale not given: the % may be the effect or the level left
Splenocyte [30] = test: Immunosuppressive activity in C57BL/6J mouse splenocytes assessed as inhibition of ConA-induced splenocytes proliferation at 0.625 uM measured after 72 hrs by CellTrace Violet staining based flow cytometric analysis (reference value: 63.9 %); format: functional; design: scale not given: the % may be the effect or the level left
Mus musculus [31] = test: Hepatoprotective activity against ConA-induced hepatitis in C57BL/6J mouse assessed as suppression of AST level at 10 mg/kg, ip administered for 3 days by automatic analyzer; format: functional, organism-based; details: time 3.0 day
[32] = Immunosuppressive activity in human PBMCs assessed as inhibition of anti-CD3/anti-CD28 induced T-cell proliferation at 2.5 uM for 72 hrs by CellTrace Violet staining based flow cytometric analysis (reference value: 63.3 %); format: functional, PBMC; design: scale not given: the % may be the effect or the level left
PBMC [33] = test: Immunosuppressive activity against anti-CD3/anti-CD28 stimulated human PBMCs assessed as reduction of IL-10 secretion at 0.625 to 2.5 uM; format: functional, tissue-based; details: dose 0.625-2.5 µM
PBMC [34] = test: Immunosuppressive activity against anti-CD3/anti-CD28 stimulated human PBMCs assessed as reduction of IL-6 secretion at 0.625 to 2.5 uM; format: functional, tissue-based; details: dose 0.625-2.5 µM

In the case of `COC1=C(C(C)C)C(=O)[C@]23O[C@@]2(C1=O)[C@@]1(C)CC[C@H](O)C(C)(C)[C@@H]1CC3=O`, the Activity (Mus musculus [1]) is reported as “Active”, the Activity [2] is reported as 56.4% and the Activity (Splenocyte [3]) is reported as 42.2%. For the same compound, the Activity (Splenocyte [4]) was “Active”, the Activity (Splenocyte [5]) was “Active” and the Activity (Mus musculus [6]) was “inactive”. For the same compound, the Activity (Splenocyte [7]) was 5.48%, the Activity [8] was “Non-Toxic” and the Activity (Splenocyte [9]) was 68.8%. The Activity (Splenocyte [10]) was “Active”, the Activity (Splenocyte [11]) was “Active” and the Activity (Splenocyte [12]) was “Active”. The Activity (Splenocyte [13]) was 51.1%, the Activity (PBMC [14]) was “Active” and the Activity (Splenocyte [15]) was “Active”. For the same compound, the Activity [16] was 24.9%, the Activity (Mus musculus [17]) was “inactive” and the inhibition (Splenocyte [18]) was “Active”. The Activity (Mus musculus [19]) was “inactive”, the inhibition (Splenocyte [20]) was “Active” and the Activity (Mus musculus [21]) was “Active”. For the same compound, the Activity (Mus musculus [22]) was “Active”, the inhibition (Splenocyte [23]) was “Active” and the Activity (PBMC [24]) was “Active”. It also gave an Activity (Splenocyte [25]) of 7.39%, an Activity (Splenocyte [26]) of 70.2% and an Activity [27] of 61.3%. The inhibition (Splenocyte [28]) was “Active”, the Activity (Splenocyte [29]) was 10.8% and the Activity (Splenocyte [30]) was 29.9%. For the same compound, the Activity (Mus musculus [31]) was “Active”, the Activity [32] was 8.24% and the Activity (PBMC [33]) was “Active”. For the same compound, the Activity (PBMC [34]) was “Active”.
